Assay results: patent US12653797B2, “Tablet and method for manufacturing same” (AYUMI PHARMACEUTICAL CORPORATION, priority 2020, dated 2026)

Assay: Measurement of the particle diameter of the acetaminophen active pharmaceutical ingredients (dry laser diffraction)
Type: physicochemical
Settings: dispersion air pressure 0.5 bar
Source text: There may be some differences between manufacturing lots. In addition, the volume-average particle diameter (MV) of the present acetaminophen active pharmaceutical ingredient can be in the range from 100 to 350 μm and may be in the range from 120 to 330 μm. There may be some differences between manufacturing lots. The particle size distribution in the present invention is acquired by evaluation of the volumetric distribution using dry particle diameter measurement by a laser diffraction method (Laser Micron Sizer LMS-2000e (Seishin Enterprise Co., Ltd.)). D50 is the particle diameter at the 50% accumulation of the individual volumes from the small diameter side of the particle size distribution, and is referred to as the median particle diameter. (3) Measurement of the Particle Diameter of the Acetaminophen Active Pharmaceutical Ingredients The acetaminophen active pharmaceutical ingredients were subjected to dry measurement of the particle diameter by a laser diffraction method. A Laser Micron Sizer LMS-2000e (Seishin Enterprise Co., Ltd.) was used for measurement of the particle size distribution. The measurement was carried out at a dispersion compressed air pressure of 0.5 bar.

Compound | D10 | D50 (median particle diameter) | D90 | MV (volume-average particle diameter)
CC(=O)Nc1ccc(O)cc1 [AA API d, acetaminophen] | 75 μm | 419 μm | 855 μm | 452 μm
CC(=O)Nc1ccc(O)cc1 [AA API a, acetaminophen] | 73 μm | 224 μm | 404 μm | 234 μm
CC(=O)Nc1ccc(O)cc1 [AA API b, acetaminophen] | 62 μm | 191 μm | 353 μm | 202 μm
CC(=O)Nc1ccc(O)cc1 [AA API c, acetaminophen] | 27 μm | 147 μm | 357 μm | 173 μm

The next lines start with the values.

D10 | D50 (median particle diameter) | D90 | MV (volume-average particle diameter) | Compound
42 μm | 202 μm | 426 μm | 222 μm | CC(=O)Nc1ccc(O)cc1 [AA API f, acetaminophen]
5.7 μm | 26 μm | 116 μm | 46 μm | CC(=O)Nc1ccc(O)cc1 [AA API e, acetaminophen]
125 μm | 288 μm | 516 μm | 306 μm | CC(=O)Nc1ccc(O)cc1 [AA API g, acetaminophen]
